Bridge positions count the residues as written; N and C are the ends. Square brackets hold non-standard residues; d marks the D form. Peptide text beside a SMILES is read from it. * marks the point of attachment. Bip = N[C@@H](Cc1ccc(-c2ccccc2)cc1)C(=O)O; Cha = N[C@@H](CC1CCCCC1)C(=O)O; Carboxymethyl = O=C(O)C*; NMeA = CN[C@@H](C)C(=O)O; Nle = CCCC[C@H](N)C(=O)O; Dap = NC[C@H](N)C(=O)O
biological target: T1, PE-labeled human PD-L1-Ig binding to Jurkat cell line over-expressing human PD-1 (Jurkat-PD-1) (Homo sapiens, UniProt Q15116); assay: Jurkat-PD-1 Cell Binding High-Content Screening Assay (CBA): Method 1; conditions: Jurkat-hPD-1 cells, PE-labeled PD-L1-Ig 20 nM final; read-out: Jurkat HPDL1 PD1 IC50 (uM) (Method 1)
T1 construct: expressed in transfected cells; host or cells: Jurkat
T1 sequence (Q15116 25-288): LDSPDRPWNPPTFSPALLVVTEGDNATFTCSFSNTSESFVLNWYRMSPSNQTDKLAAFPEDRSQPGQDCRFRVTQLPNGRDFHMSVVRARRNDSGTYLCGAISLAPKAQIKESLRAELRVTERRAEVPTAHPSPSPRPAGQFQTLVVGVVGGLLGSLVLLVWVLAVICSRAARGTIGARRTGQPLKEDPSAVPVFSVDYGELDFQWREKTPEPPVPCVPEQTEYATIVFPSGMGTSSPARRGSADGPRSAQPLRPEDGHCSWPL

| Compound | IC50 [µM] |
| --- | --- |
| CC(C)C[C@H]1NC(=O)[C@H](C)N(C)C(=O)[C@H](C(C)C)NC(=O)[C@H](Cc2ccc(-c3ccccc3)cc2)NC(=O)[C@H](C(C)C)NC(=O)[C@H](Cc2c[nH]c3ccccc23)NC(=O)[C@H](CC(=O)O)NC(=O)[C@H](Cc2ccc(O)cc2)NC(=O)[C@H](Cc2ccc(OCC(=O)O)cc2)NC(=O)CSC[C@@H](C(=O)N[C@@H](C)C(N)=O)NC(=O)[C@H]([C@@H](C)O)NC(=O)[C@H](C(C)C)NC(=O)[C@H](CC2CCCCC2)NC(=O)[C@H](CCCNC(=N)N)NC1=O [Compound 1486] ({CH2CO}-Y(Carboxymethyl)YDWV[Bip]V[NMeA][dL]R[Cha]VTCA-NH2; thioether N-14) | 0.62 |
| CC(C)C[C@H]1NC(=O)[C@H](C)N(C)C(=O)[C@H](C(C)C)NC(=O)[C@H](Cc2ccc(-c3ccccc3)cc2)NC(=O)[C@H](C(C)C)NC(=O)[C@H](Cc2c[nH]c3ccccc23)NC(=O)[C@H](CC(=O)O)NC(=O)[C@H](Cc2ccc(O)cc2)NC(=O)[C@H](Cc2ccccc2)NC(=O)CSC[C@@H](C(=O)N[C@@H](C)C(N)=O)NC(=O)[C@H]([C@@H](C)O)NC(=O)[C@H](C(C)C)NC(=O)[C@H](CC2CCCCC2)NC(=O)[C@H](CCCNC(=N)N)NC1=O [Compound 1487] ({CH2CO}-FYDWV[Bip]V[NMeA][dL]R[Cha]VTCA-NH2; thioether N-14) | 0.32 |
| CC[C@H](C)[C@@H]1NC(=O)[C@H](Cc2ccc(-c3ccccc3)cc2)NC(=O)[C@H](C(C)C)NC(=O)[C@H](Cc2c[nH]c3ccccc23)NC(=O)[C@H](CC(=O)O)NC(=O)[C@H](Cc2ccc(O)cc2)NC(=O)[C@H](CN)NC(=O)CSC[C@@H](C(=O)N[C@@H](C)C(N)=O)NC(=O)[C@H]([C@@H](C)O)NC(=O)[C@H](C(C)C)NC(=O)[C@H](CC2CCCCC2)NC(=O)[C@H](CCCNC(=N)N)NC(=O)[C@@H](CC(C)C)NC(=O)[C@H](C)N(C)C1=O [Compound 1492] ({CH2CO}-[Dap]YDWV[Bip]I[NMeA][dL]R[Cha]VTCA-NH2; thioether N-14) | 0.04 |
| CC[C@H](C)[C@@H]1NC(=O)[C@H](Cc2ccc(-c3ccccc3)cc2)NC(=O)[C@H](C(C)C)NC(=O)[C@H](Cc2c[nH]c3ccccc23)NC(=O)[C@H](CC(=O)O)NC(=O)[C@H](Cc2ccc(O)cc2)NC(=O)[C@H](Cc2ccc(OCC(=O)O)cc2)NC(=O)CSC[C@@H](C(=O)N[C@@H](C)C(N)=O)NC(=O)[C@H]([C@@H](C)O)NC(=O)[C@H](C(C)C)NC(=O)[C@H](CC2CCCCC2)NC(=O)[C@H](CCCNC(=N)N)NC(=O)[C@@H](CC(C)C)NC(=O)[C@H](C)N(C)C1=O [Compound 1493] ({CH2CO}-Y(Carboxymethyl)YDWV[Bip]I[NMeA][dL]R[Cha]VTCA-NH2; thioether N-14) | 0.03 |
| CC[C@H](C)[C@@H]1NC(=O)[C@H](Cc2ccc(-c3ccccc3)cc2)NC(=O)[C@H](C(C)C)NC(=O)[C@H](Cc2c[nH]c3ccccc23)NC(=O)[C@H](CC(=O)O)NC(=O)[C@H](Cc2ccc(O)cc2)NC(=O)[C@H](Cc2ccccc2)NC(=O)CSC[C@@H](C(=O)N[C@@H](C)C(N)=O)NC(=O)[C@H]([C@@H](C)O)NC(=O)[C@H](C(C)C)NC(=O)[C@H](CC2CCCCC2)NC(=O)[C@H](CCCNC(=N)N)NC(=O)[C@@H](CC(C)C)NC(=O)[C@H](C)N(C)C1=O [Compound 1494] ({CH2CO}-FYDWV[Bip]I[NMeA][dL]R[Cha]VTCA-NH2; thioether N-14) | 0.05 |
| CCCC[C@@H]1NC(=O)[C@H](CCCNC(=N)N)NC(=O)[C@@H](CC(C)C)NC(=O)[C@H](C)N(C)C(=O)[C@H]([C@@H](C)CC)NC(=O)[C@H](Cc2ccc(-c3ccccc3)cc2)NC(=O)[C@H](C(C)C)NC(=O)[C@H](Cc2c[nH]c3ccccc23)NC(=O)[C@H](CC(=O)O)NC(=O)[C@H](Cc2ccc(O)cc2)NC(=O)[C@H](Cc2ccc(OCC(=O)O)cc2)NC(=O)CSC[C@@H](C(=O)N[C@@H](C)C(N)=O)NC(=O)[C@H]([C@@H](C)O)NC(=O)[C@H](C(C)C)NC1=O [Compound 1497] ({CH2CO}-Y(Carboxymethyl)YDWV[Bip]I[NMeA][dL]R[Nle]VTCA-NH2; thioether N-14) | 0.2 |

Next, values leading:

| IC50 [µM] | Compound |
| --- | --- |
| 0.07 | CC(C)C[C@@H]1NC(=O)[C@H](CCCCN)NC(=O)[C@@H](CC(C)C)NC(=O)[C@H](C)N(C)C(=O)[C@H](Cc2cnc[nH]2)NC(=O)[C@H](Cc2ccc(-c3ccccc3)cc2)NC(=O)[C@H](C(C)C)NC(=O)[C@H](Cc2c[nH]c3ccccc23)NC(=O)[C@H](CC(=O)O)NC(=O)[C@H](Cc2ccc(O)cc2)NC(=O)[C@H](CC(N)=O)NC(=O)CSC[C@@H](C(=O)NCC(N)=O)NC(=O)[C@H]([C@@H](C)O)NC(=O)[C@H](C(C)C)NC1=O [Compound 1484] ({CH2CO}-NYDWV[Bip]H[NMeA][dL]KLVTCG-NH2; thioether N-14) |
| 0.39 | CC(C)C[C@H]1NC(=O)[C@H](C)N(C)C(=O)[C@H](C(C)C)NC(=O)[C@H](Cc2ccc(-c3ccccc3)cc2)NC(=O)[C@H](C(C)C)NC(=O)[C@H](Cc2c[nH]c3ccccc23)NC(=O)[C@H](CC(=O)O)NC(=O)[C@H](Cc2ccc(O)cc2)NC(=O)[C@H](CN)NC(=O)CSC[C@@H](C(=O)N[C@@H](C)C(N)=O)NC(=O)[C@H]([C@@H](C)O)NC(=O)[C@H](C(C)C)NC(=O)[C@H](CC2CCCCC2)NC(=O)[C@H](CCCNC(=N)N)NC1=O [Compound 1485] ({CH2CO}-[Dap]YDWV[Bip]V[NMeA][dL]R[Cha]VTCA-NH2; thioether N-14) |
| 0.04 | CC[C@H](C)[C@@H]1NC(=O)[C@H](Cc2ccc(-c3ccccc3)cc2)NC(=O)[C@H](C(C)C)NC(=O)[C@H](Cc2c[nH]c3ccccc23)NC(=O)[C@H](CC(=O)O)NC(=O)[C@H](Cc2ccc(O)cc2)NC(=O)[C@H](CN)NC(=O)CSC[C@@H](C(=O)N[C@@H](C)C(N)=O)NC(=O)[C@H]([C@@H](C)O)NC(=O)[C@H](C(C)C)NC(=O)[C@H](CC(C)C)NC(=O)[C@H](CCCNC(=N)N)NC(=O)[C@@H](CC(C)C)NC(=O)[C@H](C)N(C)C1=O [Compound 1488] ({CH2CO}-[Dap]YDWV[Bip]I[NMeA][dL]RLVTCA-NH2; thioether N-14) |
| 0.04 | CC[C@H](C)[C@@H]1NC(=O)[C@H](Cc2ccc(-c3ccccc3)cc2)NC(=O)[C@H](C(C)C)NC(=O)[C@H](Cc2c[nH]c3ccccc23)NC(=O)[C@H](CC(=O)O)NC(=O)[C@H](Cc2ccc(O)cc2)NC(=O)[C@H](Cc2ccc(OCC(=O)O)cc2)NC(=O)CSC[C@@H](C(=O)N[C@@H](C)C(N)=O)NC(=O)[C@H]([C@@H](C)O)NC(=O)[C@H](C(C)C)NC(=O)[C@H](CC(C)C)NC(=O)[C@H](CCCNC(=N)N)NC(=O)[C@@H](CC(C)C)NC(=O)[C@H](C)N(C)C1=O [Compound 1489] ({CH2CO}-Y(Carboxymethyl)YDWV[Bip]I[NMeA][dL]RLVTCA-NH2; thioether N-14) |
| 0.07 | CC[C@H](C)[C@@H]1NC(=O)[C@H](Cc2ccc(-c3ccccc3)cc2)NC(=O)[C@H](C(C)C)NC(=O)[C@H](Cc2c[nH]c3ccccc23)NC(=O)[C@H](CC(=O)O)NC(=O)[C@H](Cc2ccc(O)cc2)NC(=O)[C@H](CC(N)=O)NC(=O)CSC[C@@H](C(=O)N[C@@H](C)C(N)=O)NC(=O)[C@H]([C@@H](C)O)NC(=O)[C@H](C(C)C)NC(=O)[C@H](CC(C)C)NC(=O)[C@H](CCCNC(=N)N)NC(=O)[C@@H](CC(C)C)NC(=O)[C@H](C)N(C)C1=O [Compound 1490] ({CH2CO}-NYDWV[Bip]I[NMeA][dL]RLVTCA-NH2; thioether N-14) |
| 0.09 | CC[C@H](C)[C@@H]1NC(=O)[C@H](Cc2ccc(-c3ccccc3)cc2)NC(=O)[C@H](C(C)C)NC(=O)[C@H](Cc2c[nH]c3ccccc23)NC(=O)[C@H](CC(=O)O)NC(=O)[C@H](Cc2ccc(O)cc2)NC(=O)[C@H](Cc2ccccc2)NC(=O)CSC[C@@H](C(=O)N[C@@H](C)C(N)=O)NC(=O)[C@H]([C@@H](C)O)NC(=O)[C@H](C(C)C)NC(=O)[C@H](CC(C)C)NC(=O)[C@H](CCCNC(=N)N)NC(=O)[C@@H](CC(C)C)NC(=O)[C@H](C)N(C)C1=O [Compound 1491] ({CH2CO}-FYDWV[Bip]I[NMeA][dL]RLVTCA-NH2; thioether N-14) |
| 0.04 | CC[C@H](C)[C@@H]1NC(=O)[C@H](Cc2ccc(-c3ccccc3)cc2)NC(=O)[C@H](C(C)C)NC(=O)[C@H](Cc2c[nH]c3ccccc23)NC(=O)[C@H](CC(=O)O)NC(=O)[C@H](Cc2ccc(O)cc2)NC(=O)[C@H](CC(N)=O)NC(=O)CSC[C@@H](C(=O)N[C@@H](C)C(N)=O)NC(=O)[C@H]([C@@H](C)O)NC(=O)[C@H](C(C)C)NC(=O)[C@H](CC2CCCCC2)NC(=O)[C@H](CCCNC(=N)N)NC(=O)[C@@H](CC(C)C)NC(=O)[C@H](C)N(C)C1=O [Compound 1495] ({CH2CO}-NYDWV[Bip]I[NMeA][dL]R[Cha]VTCA-NH2; thioether N-14) |
| 0.18 | CCCC[C@@H]1NC(=O)[C@H](CCCNC(=N)N)NC(=O)[C@@H](CC(C)C)NC(=O)[C@H](C)N(C)C(=O)[C@H]([C@@H](C)CC)NC(=O)[C@H](Cc2ccc(-c3ccccc3)cc2)NC(=O)[C@H](C(C)C)NC(=O)[C@H](Cc2c[nH]c3ccccc23)NC(=O)[C@H](CC(=O)O)NC(=O)[C@H](Cc2ccc(O)cc2)NC(=O)[C@H](CN)NC(=O)CSC[C@@H](C(=O)N[C@@H](C)C(N)=O)NC(=O)[C@H]([C@@H](C)O)NC(=O)[C@H](C(C)C)NC1=O [Compound 1496] ({CH2CO}-[Dap]YDWV[Bip]I[NMeA][dL]R[Nle]VTCA-NH2; thioether N-14) |
| 0.12 | CCCC[C@@H]1NC(=O)[C@H](CCCNC(=N)N)NC(=O)[C@@H](CC(C)C)NC(=O)[C@H](C)N(C)C(=O)[C@H]([C@@H](C)CC)NC(=O)[C@H](Cc2ccc(-c3ccccc3)cc2)NC(=O)[C@H](C(C)C)NC(=O)[C@H](Cc2c[nH]c3ccccc23)NC(=O)[C@H](CC(=O)O)NC(=O)[C@H](Cc2ccc(O)cc2)NC(=O)[C@H](CC(N)=O)NC(=O)CSC[C@@H](C(=O)N[C@@H](C)C(N)=O)NC(=O)[C@H]([C@@H](C)O)NC(=O)[C@H](C(C)C)NC1=O [Compound 1498] ({CH2CO}-NYDWV[Bip]I[NMeA][dL]R[Nle]VTCA-NH2; thioether N-14) |
